Patent US20130123358A1, “Metabolic Benefits to Butyrate as a Chronic Diet Supplement” (priority 2009, published 2013)

Key:
Format in all cases: in vivo, mouse
[1] = tested on: brown adipose tissue PGC-1α and UCP-1; test: Brown adipose tissue morphology, qRT-PCR and immunoblot
Description: (§1) Total RNA was extracted from frozen tissues (kept at −80° C.) using Tri-Reagent (T9424, Sigma) as described elsewhere (16). Taqman RT-PCR primer and probe were used to determine mRNA for PGC-1α (Mm00447183_m1), UCP-1 (Mm00494069_m1), PPARδ (Mm01305434_m1) and CPT1b (Mm00487200_m1). The reagents were purchased from Applied Biosystems (Foster City, Calif.). Mouse ribosome 18S rRNA_s1 (without intron-exon junction) was used as an internal control. Reaction was conducted with 7900 HT Fast real time PCR System (Applied Biosystems, Foster City, Calif.).
Fresh fat and muscles were collected and frozen in liquid nitrogen. The whole cell lysate protein was extract in lysis buffer with sonication and analyzed in western blot as described elsewhere (16). Antibodies were used in study of myoglobin (sc-25607, Santa Cruz), PGC-1 (sc-13068, Santa Cruz), Tubulin (ab7291, Abcam), myosin (M8421, Sigma), pAMPK (Thr 172, #2531, Cell signaling) and p-p38 (sc-7975, Santa Cruz). To detect multiple signals from one membrane, the membrane was stripped with a stripping buffer. Intensity of the immunoblot signal was quantified using a computer program, ImageJ 1.37v (NIH). The mean values of results from three experiments (6 mice each group) were presented. The antibodies to PGC-1α and UCP-1 were from Dr. Thomas Gettys at Pennington Biomedical Research Center, Baton Rouge, La.
Fresh tissues (muscle, fat and liver) were collected at 16 weeks of age after 12 weeks butyrate feeding and fixed in 10% neutral buffered formalin solution (HT50-1-2, Sigma). The tissue slides were obtained through serial cross-section cutting at 8 um thickness and processed with a standard procedure. Briefly, the slides were deparaffinated and stained in haematoxylin (#101542, Surgipath) for 15 min, and rinsed in water until sections are blue. Then, slides were stained in Eosin (E4009, Sigma), dehydrated quickly in 95% ethanol and treated with […]. The sections were mounted and photographed with Nikon microscope (Eclipse TS100, Japan).
In addition, the morphology and gene expression were examined in the brown fat of mice. Hematoxylin and eosin staining (H&E staining) was conducted on brown adipose tissues collected at 13 weeks on HFD. […] Compared to the control mice, the size of brown adipocytes was much smaller in the butyrate group (FIG. 4B), indicating a higher thermogenic activity that leads to the reduction in fat accumulation. Mitochondrial function is regulated by gene expression (24). To understand the molecular basis of the increased thermogenesis, the expression of two thermogenesis-related genes, such as PGC-1α and UCP-1, were examined in BAT. mRNA of both genes was increased in the butyrate-treated mice. Brown adipose tissues were collected at 13 weeks on HFD, and gene expression for PGC-1α and UCP-1 was examined by qRT-PCR. In addition, the corresponding proteins were assayed using a whole cell lysate (100 μg) resolved in SDS-PAGE and blotted with PGC-1α and UCP-1 antibodies. […] Data in FIGS. 4A-4D are presented as means±SE (n=9 mice). * P<0.05. This increase in gene expression provides a molecular basis for the enhanced thermogenesis by the butyrate treatment.

[2] = tested on: C57BL/6J mice on high fat diet; test: Body temperature in cold response (4° C.); settings: butyrate 5% w/w in HFD 10 weeks, ambient 4° C.
Description: Body temperature was measured in the cold room with ambient temperature at 4° C. Animals were sedated and restrained for less than 30 sec in the measurement. A Thermalert model TH-8 temperature monitor (Physitemp, Clifton, N.J.) was used with probe placed in the rectum at 2.5 cm in depth.
The association of increased food intake with elevated energy expenditure implicated a role of brown adipose tissue, which is responsible for adaptive thermogenesis in response to diet or cold (20-22). Diet-induced thermogenesis reduces obesity in both humans and animals (23). […] To determine the thermogenic function, a cold-response experiment was conducted by exposing the mice to a cold environment with an ambient temperature of 4° C. for 90 min. The mice had been on HFD for 10 weeks. The body core temperature was monitored three times during exposure by measuring the rectal temperature. In the control mice, the body temperature decreased with time and was 34.5° C. after 90 min in the cold (FIG. 4A). In the butyrate-treated mice, the body temperature dropped to 35° C. transiently at 30 minutes, and then returned to 36° C. for the rest of time.

[3] = tested on: skeletal muscle mitochondrial function; test: Fatty acid oxidation and gene expression in skeletal muscle; settings: butyrate 5% w/w in HFD 13 weeks
Description: as §1
Mitochondrial function was examined in the skeletal muscle tissue and L6 muscle cells under butyrate treatment. Fatty acid oxidation was monitored in the […] with ^14C-labeled palmitic acid.
Vastus laterais muscle and blood samples were collected from mice at 13 weeks on HFD (18 weeks in age) and examined for fatty acid oxidation, gene expression, and blood lipids. FIG. 7A illustrates the fatty acid oxidation in muscle, measured as a fold change in ^14C-labeled CO2.
In addition, relative fold change in mRNA was used to indicate gene expression of PGC-1α target genes, such as CPT-1b (carnitine palmitoyltransferase-1b) and COX-I (cytochrome c oxidase I), and of the nuclear receptor PPARδ. In FIG. 7C, mitochondrial DNA of COX I was determined by Sybr green RT-PCR. The fatty acid oxidation was associated with expression of PGC-1α target genes, such as CPT-1b (carnitine palmitoyltransferase-1b) and COX-I (cytochrome c oxidase I) (9). Expression of these two genes was increased in the skeletal muscle of butyrate-treated mice (FIGS. 7B and 7C). The nuclear receptor PPARδ promotes fatty acids oxidation in skeletal muscle (29).

[4] = butyrate 5% w/w in HFD 13 weeks, immunoblot
[5] = butyrate 5% w/w in HFD 13 weeks, qRT-PCR

## CCCC(=O)[O-].[Na+] [sodium butyrate]
[1]; butyrate 5% w/w in HFD 13 weeks vs control, H&E
  size of brown adipocytes: much smaller
[1]; [4]
  PGC-1α protein in brown fat: also increased
  UCP-1 protein in brown fat: also increased
[1]; [5]
  PGC-1α mRNA in BAT: increased
  UCP-1 mRNA in BAT: increased
[2]
  body temperature (rectal) at 30 minutes in the cold: 35 °C
[2]; up to 90 min
  body temperature (rectal) for the rest of time in the cold: 36 °C
[3]; 14C-labeled palmitic acid
  fatty acid oxidation in muscle, increase in 14C-labeled CO2: 200%
[3]; mRNA
  CPT-1b expression in skeletal muscle: increased
  PPARδ expression in skeletal muscle: also increased
[3]; mitochondrial DNA by Sybr green RT-PCR
  COX-I expression in skeletal muscle: increased
